Results reported in PubChem BioAssay AID248 (DTP/NCI, 2004).
Several values for one entry are separate records, joined by “and”; a condition that tells them apart may be missing. Equal entries are not always repeated. Toxic doses and inconclusive results are not listed. Cut-off read from the data, not from the text of the source: active = T/C of 150% or more; inactive = T/C below 125%.

System: L1210 leukemia ip in BDF1 mice, survival T/C
Test: NCI In Vivo Anticancer Drug Screen. Data for tumor model L1210 Leukemia (intraperitoneal) in B6D2F1 (BDF1) mice
Conditions: endpoint: mean survival time, higher = longer survival
How it was run: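 Each compound was tested against a transplantable tumor grown in mice. The endpoint was survival, with treated animals benchmarked against vehicle controls as a simple ratio.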

[1] = dose: 100.0 mg/kg/injection, schedule: Q01DX001 (ip), vehicle: carboxymethylcellulose (CMC)
[2] = dose: 200.0 mg/kg/injection, schedule: Q01DX001 (ip), vehicle: carboxymethylcellulose (CMC)
[3] = dose: 400.0 mg/kg/injection, schedule: Q01DX001 (ip), vehicle: carboxymethylcellulose (CMC)
[4] = dose: 100.0 mg/kg/injection, schedule: Q01DX009 (ip), vehicle: Klucel (hydroxypropylcellulose) (HPC)
[5] = dose: 100.0 mg/kg/injection, schedule: Q04DX003 (ip), vehicle: Klucel (hydroxypropylcellulose) (HPC)
[6] = dose: 200.0 mg/kg/injection, schedule: Q01DX009 (ip), vehicle: Klucel (hydroxypropylcellulose) (HPC)
[7] = dose: 200.0 mg/kg/injection, schedule: Q04DX003 (ip), vehicle: Klucel (hydroxypropylcellulose) (HPC)
[8] = dose: 400.0 mg/kg/injection, schedule: Q04DX003 (ip), vehicle: Klucel (hydroxypropylcellulose) (HPC)
[9] = dose: 50.0 mg/kg/injection, schedule: Q01DX009 (ip), vehicle: saline with Tween-80
[10] = dose: 100.0 mg/kg/injection, schedule: Q01DX009 (ip), vehicle: saline with Tween-80
[11] = dose: 200.0 mg/kg/injection, schedule: Q01DX009 (ip), vehicle: saline with Tween-80
[12] = dose: 100.0 mg/kg/injection, schedule: Q04DX002 (ip), vehicle: saline with Tween-80
[13] = dose: 200.0 mg/kg/injection, schedule: Q04DX002 (ip), vehicle: saline with Tween-80
[14] = dose: 400.0 mg/kg/injection, schedule: Q04DX002 (ip), vehicle: saline with Tween-80
[15] = dose: 400.0 mg/kg/injection, schedule: Q01DX009 (ip), vehicle: Klucel (hydroxypropylcellulose) (HPC)
[16] = dose: 100.0 mg/kg/injection, schedule: Q04DX003 (ip), vehicle: saline with Tween-80
[17] = dose: 200.0 mg/kg/injection, schedule: Q04DX003 (ip), vehicle: saline with Tween-80
[18] = dose: 400.0 mg/kg/injection, schedule: Q04DX003 (ip), vehicle: saline with Tween-80
[19] = dose: 100.0 mg/kg/injection, schedule: Q01DX001 (ip), vehicle: saline
[20] = dose: 200.0 mg/kg/injection, schedule: Q01DX001 (ip), vehicle: saline

Measured: T/C

CCCCCCCCCCCCCC(=O)N(CCC)CCC
inactive: [1] 96 % of control | dose: 100.0 mg/kg/injection, schedule: Q01DX009 (ip), vehicle: carboxymethylcellulose (CMC) 94 % of control and 110 % of control | dose: 100.0 mg/kg/injection, schedule: Q04DX003 (ip), vehicle: carboxymethylcellulose (CMC) 95 % of control | [2] 93 % of control | dose: 200.0 mg/kg/injection, schedule: Q01DX009 (ip), vehicle: carboxymethylcellulose (CMC) 98 % of control and 103 % of control | dose: 200.0 mg/kg/injection, schedule: Q04DX003 (ip), vehicle: carboxymethylcellulose (CMC) 95 % of control | [3] 91 % of control | dose: 400.0 mg/kg/injection, schedule: Q04DX003 (ip), vehicle: carboxymethylcellulose (CMC) 93 % of control

CCCCNC(C)(C)C1(c2ccc(Cl)cc2)SSC(c2ccc(Cl)cc2)(C(C)(C)NCCCC)SS1 (stereo not drawn)
inactive: [4] 99 % of control | [5] 93 % of control | [6] 99 % of control | [7] 101 % of control | [8] 97 % of control

O=C(N/N=C/c1cccc(F)c1)c1ccc(Cl)cc1
inactive: [9] 94 % of control | [10] 91 % of control | [11] 94 % of control

O=Cc1c[nH]c2ccc(Br)cc12
inactive: dose: 100.0 mg/kg/injection, schedule: Q04DX003 (ip), vehicle: saline 95 % of control | dose: 200.0 mg/kg/injection, schedule: Q04DX003 (ip), vehicle: saline 105 % of control | dose: 400.0 mg/kg/injection, schedule: Q04DX003 (ip), vehicle: saline 95 % of control

CC1CC(Cc2cccc3ccccc23)C(=O)O1 (stereo not drawn)
inactive: dose: 37.5 mg/kg/injection, schedule: Q01DX009 (ip), vehicle: saline 102 % of control | dose: 75.0 mg/kg/injection, schedule: Q01DX001 (ip), vehicle: saline 97 % of control | dose: 75.0 mg/kg/injection, schedule: Q01DX009 (ip), vehicle: saline 98 % of control | dose: 75.0 mg/kg/injection, schedule: Q04DX003 (ip), vehicle: saline 96 % of control | dose: 150.0 mg/kg/injection, schedule: Q01DX001 (ip), vehicle: saline 97 % of control | dose: 150.0 mg/kg/injection, schedule: Q01DX009 (ip), vehicle: saline 96 % of control | dose: 150.0 mg/kg/injection, schedule: Q04DX003 (ip), vehicle: saline 94 % of control | dose: 300.0 mg/kg/injection, schedule: Q01DX001 (ip), vehicle: saline 98 % of control | dose: 300.0 mg/kg/injection, schedule: Q04DX003 (ip), vehicle: saline 94 % of control

CC(C)(C)NC#SNC(C)(C)C
inactive: [12] 100 % of control | [13] 92 % of control | [14] 92 % of control

CC1(C)C2CCC([CH2][Hg][Cl])C1C2 (stereo not drawn)
inactive: dose: 6.25 mg/kg/injection, schedule: Q01DX009 (ip), vehicle: saline 93 % of control | dose: 6.25 mg/kg/injection, schedule: Q04DX003 (ip), vehicle: other 103 % of control | dose: 12.5 mg/kg/injection, schedule: Q01DX009 (ip), vehicle: saline 91 % of control | dose: 12.5 mg/kg/injection, schedule: Q04DX003 (ip), vehicle: other 103 % of control | dose: 20.0 mg/kg/injection, schedule: Q01DX001 (ip), vehicle: Klucel (hydroxypropylcellulose) (HPC) 102 % of control | dose: 25.0 mg/kg/injection, schedule: Q01DX009 (ip), vehicle: saline 94 % of control | dose: 25.0 mg/kg/injection, schedule: Q04DX003 (ip), vehicle: other 106 % of control

COc1ccc(Cl)cc1NC(=O)Nc1ccc(Cl)cc1Cl
inactive: [4] 94 % of control | [5] 111 % of control | [6] 96 % of control | [7] 91 % of control | [15] 94 % of control | [8] 94 % of control

CC1CCCCN1C(=O)Nc1ccccc1C(F)(F)F (stereo not drawn)
inactive: dose: 100.0 mg/kg/injection, schedule: Q01DX001 (ip), vehicle: saline with Tween-80 96 % of control and 97 % of control | [10] 100 % of control and 119 % of control | [12] 96 % of control and 86 % of control | [16] 99 % of control and 91 % of control | dose: 200.0 mg/kg/injection, schedule: Q01DX001 (ip), vehicle: saline with Tween-80 97 % of control and 100 % of control | [11] 106 % of control and 107 % of control | [13] 96 % of control and 99 % of control | [17] 95 % of control and 101 % of control | dose: 400.0 mg/kg/injection, schedule: Q01DX001 (ip), vehicle: saline with Tween-80 100 % of control and 90 % of control | dose: 400.0 mg/kg/injection, schedule: Q01DX009 (ip), vehicle: saline with Tween-80 93 % of control and 116 % of control | [14] 95 % of control and 100 % of control | [18] 91 % of control

CNC(=O)Nc1ccncc1
inactive: [16] 96 % of control | [17] 102 % of control | [18] 91 % of control

CCOC(=O)CC(=O)OCC
inactive: [19] 93 % of control | [20] 93 % of control | dose: 400.0 mg/kg/injection, schedule: Q01DX001 (ip), vehicle: saline 90 % of control

O=C(c1ccccc1)C(Cl)C(O)(C(F)(F)F)C(F)(F)F (stereo not drawn)
inactive: [9] 96 % of control | [10] 92 % of control | [11] 108 % of control

c1ccc(N2CCOCC2)cc1
inactive: dose: 12.5 mg/kg/injection, schedule: Q01DX009 (ip), vehicle: saline with Tween-80 93 % of control | dose: 25.0 mg/kg/injection, schedule: Q01DX009 (ip), vehicle: saline with Tween-80 100 % of control | [9] 89 % of control | [4] 95 % of control | [10] 92 % of control | [6] 93 % of control | [11] 92 % of control | [15] 101 % of control

Cn1c(=O)c2[nH]c(C3CC3)nc2n(C)c1=O
inactive: dose: 50.0 mg/kg/injection, schedule: Q01DX001 (ip), vehicle: saline 113 % of control | [19] 101 % of control | [20] 98 % of control

CC(O)CNC1CCC(C)CC1 (stereo not drawn)
inactive: dose: 75.0 mg/kg/injection, schedule: Q01DX001 (ip), vehicle: acid diluted with saline 96 % of control | dose: 150.0 mg/kg/injection, schedule: Q01DX001 (ip), vehicle: acid diluted with saline 100 % of control

C1=CC23C4CCC2C2C4C4C(=C1)C3C2N1CCCCC41 (stereo not drawn)
inactive: dose: 12.5 mg/kg/injection, schedule: Q04DX003 (ip), vehicle: Klucel (hydroxypropylcellulose) (HPC) 98 % of control | dose: 25.0 mg/kg/injection, schedule: Q01DX009 (ip), vehicle: Klucel (hydroxypropylcellulose) (HPC) 105 % of control | dose: 25.0 mg/kg/injection, schedule: Q04DX003 (ip), vehicle: Klucel (hydroxypropylcellulose) (HPC) 104 % of control | dose: 50.0 mg/kg/injection, schedule: Q01DX009 (ip), vehicle: Klucel (hydroxypropylcellulose) (HPC) 103 % of control | dose: 50.0 mg/kg/injection, schedule: Q04DX003 (ip), vehicle: Klucel (hydroxypropylcellulose) (HPC) 96 % of control | [5] 107 % of control

CCOC(=O)CCNC1CCCCC1
inactive: dose: 100.0 mg/kg/injection, schedule: Q01DX Z (ip), vehicle: methylcellulose (MC) 96 % of control | dose: 200.0 mg/kg/injection, schedule: Q01DX Z (ip), vehicle: methylcellulose (MC) 94 % of control

COc1ccccc1-n1c(O)c(N=Nc2ccc(Cl)cc2)c(=O)n(-c2ccc(I)cc2)c1=S
inactive: dose: 37.5 mg/kg/injection, schedule: Q01DX001 (ip), vehicle: Klucel (hydroxypropylcellulose) (HPC) 94 % of control | dose: 75.0 mg/kg/injection, schedule: Q01DX001 (ip), vehicle: Klucel (hydroxypropylcellulose) (HPC) 94 % of control | dose: 150.0 mg/kg/injection, schedule: Q01DX001 (ip), vehicle: Klucel (hydroxypropylcellulose) (HPC) 90 % of control

Oc1ccccc1/C=N/Nc1nnc(N/N=C/c2ccccc2O)c2ccccc12
inactive: dose: 50.0 mg/kg/injection, schedule: Q01DX001 (ip), vehicle: carboxymethylcellulose (CMC) 109 % of control | [1] 96 % of control | [2] 97 % of control | [3] 90 % of control
